In ChEMBL document CHEMBL4507291 (2021):

Experiments:
[1] = target: T1, Cytoplasmic tyrosine-protein kinase BMX (Homo sapiens) (UniProt P51813)
T1 sequence (whole entry): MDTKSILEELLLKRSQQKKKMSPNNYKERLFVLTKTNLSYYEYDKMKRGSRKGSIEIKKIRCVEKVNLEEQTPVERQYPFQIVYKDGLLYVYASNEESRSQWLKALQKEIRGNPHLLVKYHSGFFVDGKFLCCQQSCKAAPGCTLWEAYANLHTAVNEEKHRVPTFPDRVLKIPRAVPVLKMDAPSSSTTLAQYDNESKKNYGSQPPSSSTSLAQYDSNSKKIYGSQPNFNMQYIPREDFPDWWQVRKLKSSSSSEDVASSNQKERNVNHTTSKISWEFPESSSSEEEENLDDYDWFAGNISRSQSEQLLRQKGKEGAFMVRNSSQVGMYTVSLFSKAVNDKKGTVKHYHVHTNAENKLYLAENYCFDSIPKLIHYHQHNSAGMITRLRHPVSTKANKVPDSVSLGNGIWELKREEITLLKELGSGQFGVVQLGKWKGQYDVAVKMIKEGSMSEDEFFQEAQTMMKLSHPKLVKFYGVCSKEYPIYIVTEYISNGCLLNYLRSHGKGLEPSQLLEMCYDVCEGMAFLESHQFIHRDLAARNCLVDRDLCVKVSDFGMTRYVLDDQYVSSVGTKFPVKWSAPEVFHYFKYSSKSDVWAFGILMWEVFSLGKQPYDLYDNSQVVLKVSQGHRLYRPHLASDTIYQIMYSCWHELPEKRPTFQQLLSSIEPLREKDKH

[2] = target: Mitogen-activated protein kinase 14 (Homo sapiens) (UniProt Q16539)
Chain of Mitogen-activated protein kinase 14 (Homo sapiens) (Q16539 whole entry, canonical isoform): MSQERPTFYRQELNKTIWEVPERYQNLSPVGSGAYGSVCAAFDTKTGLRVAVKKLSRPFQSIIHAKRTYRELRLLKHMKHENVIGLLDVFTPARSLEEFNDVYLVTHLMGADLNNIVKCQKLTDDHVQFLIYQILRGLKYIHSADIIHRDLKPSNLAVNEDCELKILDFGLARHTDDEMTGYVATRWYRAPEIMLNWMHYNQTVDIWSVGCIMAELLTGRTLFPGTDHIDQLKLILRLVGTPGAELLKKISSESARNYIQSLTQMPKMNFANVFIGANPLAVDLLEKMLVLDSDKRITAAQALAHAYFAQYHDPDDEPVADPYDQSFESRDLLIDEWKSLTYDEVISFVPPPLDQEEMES

[3] = system: Phosphatidylinositol 4,5-bisphosphate 3-kinase catalytic subunit alpha isoform (Homo sapiens), P42336 [H1047L]
Chain of Phosphatidylinositol 4,5-bisphosphate 3-kinase catalytic subunit alpha isoform (Homo sapiens), P42336 [H1047L] (P42336 whole entry H1047L, canonical isoform): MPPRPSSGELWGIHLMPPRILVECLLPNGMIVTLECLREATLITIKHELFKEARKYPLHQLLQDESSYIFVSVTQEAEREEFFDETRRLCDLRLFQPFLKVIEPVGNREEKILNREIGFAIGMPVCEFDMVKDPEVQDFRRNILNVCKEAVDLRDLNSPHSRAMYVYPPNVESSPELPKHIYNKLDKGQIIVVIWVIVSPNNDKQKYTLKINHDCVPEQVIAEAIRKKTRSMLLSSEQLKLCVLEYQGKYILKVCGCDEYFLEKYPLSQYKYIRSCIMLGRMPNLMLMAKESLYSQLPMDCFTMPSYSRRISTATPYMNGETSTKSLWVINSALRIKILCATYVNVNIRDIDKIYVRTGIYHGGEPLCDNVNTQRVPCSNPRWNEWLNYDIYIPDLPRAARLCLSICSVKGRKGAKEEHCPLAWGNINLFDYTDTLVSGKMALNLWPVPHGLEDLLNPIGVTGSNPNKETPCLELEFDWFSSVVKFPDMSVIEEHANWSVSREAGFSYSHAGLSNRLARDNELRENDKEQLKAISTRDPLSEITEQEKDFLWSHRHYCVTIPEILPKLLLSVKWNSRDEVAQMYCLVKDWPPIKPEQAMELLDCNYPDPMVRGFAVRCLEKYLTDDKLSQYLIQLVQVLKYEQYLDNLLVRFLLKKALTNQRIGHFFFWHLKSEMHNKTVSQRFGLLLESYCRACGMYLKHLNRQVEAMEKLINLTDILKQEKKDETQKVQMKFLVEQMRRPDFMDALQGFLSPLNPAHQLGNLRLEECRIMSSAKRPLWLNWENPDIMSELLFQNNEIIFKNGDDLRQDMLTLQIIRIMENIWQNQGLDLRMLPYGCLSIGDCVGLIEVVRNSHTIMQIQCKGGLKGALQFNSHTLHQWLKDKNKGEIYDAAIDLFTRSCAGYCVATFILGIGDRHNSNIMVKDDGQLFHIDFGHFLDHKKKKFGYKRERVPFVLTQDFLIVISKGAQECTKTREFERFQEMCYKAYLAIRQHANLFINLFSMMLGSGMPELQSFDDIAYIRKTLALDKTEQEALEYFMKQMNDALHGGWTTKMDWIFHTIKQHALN

[4] = target: T2, Serine/threonine-protein kinase D2 (Homo sapiens) (UniProt Q9BZL6)
T2 sequence (whole entry): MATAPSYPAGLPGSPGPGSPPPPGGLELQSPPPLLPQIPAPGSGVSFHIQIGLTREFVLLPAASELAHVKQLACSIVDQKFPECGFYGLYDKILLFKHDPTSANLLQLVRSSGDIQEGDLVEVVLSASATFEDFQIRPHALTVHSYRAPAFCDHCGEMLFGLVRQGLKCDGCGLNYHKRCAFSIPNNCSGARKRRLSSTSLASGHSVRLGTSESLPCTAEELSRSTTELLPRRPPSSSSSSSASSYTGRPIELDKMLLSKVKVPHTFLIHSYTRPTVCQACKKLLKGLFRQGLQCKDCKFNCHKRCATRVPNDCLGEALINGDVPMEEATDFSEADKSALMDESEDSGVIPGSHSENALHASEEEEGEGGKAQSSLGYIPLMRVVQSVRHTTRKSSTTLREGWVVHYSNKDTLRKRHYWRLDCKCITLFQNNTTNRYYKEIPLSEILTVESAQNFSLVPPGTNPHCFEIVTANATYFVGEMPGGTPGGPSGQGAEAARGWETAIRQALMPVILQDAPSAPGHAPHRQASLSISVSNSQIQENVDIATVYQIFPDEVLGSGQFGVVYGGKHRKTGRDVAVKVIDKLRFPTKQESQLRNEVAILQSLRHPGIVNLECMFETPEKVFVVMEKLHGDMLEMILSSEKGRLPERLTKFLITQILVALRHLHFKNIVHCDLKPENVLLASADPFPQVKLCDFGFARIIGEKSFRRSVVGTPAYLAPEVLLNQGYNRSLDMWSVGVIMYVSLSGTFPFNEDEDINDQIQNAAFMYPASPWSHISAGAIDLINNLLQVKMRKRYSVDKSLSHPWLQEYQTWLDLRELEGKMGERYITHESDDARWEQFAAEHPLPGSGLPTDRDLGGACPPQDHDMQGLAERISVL

[5] = target: Mitogen-activated protein kinase 4 (Homo sapiens) (UniProt P31152)
Chain of Mitogen-activated protein kinase 4 (Homo sapiens) (P31152 whole entry): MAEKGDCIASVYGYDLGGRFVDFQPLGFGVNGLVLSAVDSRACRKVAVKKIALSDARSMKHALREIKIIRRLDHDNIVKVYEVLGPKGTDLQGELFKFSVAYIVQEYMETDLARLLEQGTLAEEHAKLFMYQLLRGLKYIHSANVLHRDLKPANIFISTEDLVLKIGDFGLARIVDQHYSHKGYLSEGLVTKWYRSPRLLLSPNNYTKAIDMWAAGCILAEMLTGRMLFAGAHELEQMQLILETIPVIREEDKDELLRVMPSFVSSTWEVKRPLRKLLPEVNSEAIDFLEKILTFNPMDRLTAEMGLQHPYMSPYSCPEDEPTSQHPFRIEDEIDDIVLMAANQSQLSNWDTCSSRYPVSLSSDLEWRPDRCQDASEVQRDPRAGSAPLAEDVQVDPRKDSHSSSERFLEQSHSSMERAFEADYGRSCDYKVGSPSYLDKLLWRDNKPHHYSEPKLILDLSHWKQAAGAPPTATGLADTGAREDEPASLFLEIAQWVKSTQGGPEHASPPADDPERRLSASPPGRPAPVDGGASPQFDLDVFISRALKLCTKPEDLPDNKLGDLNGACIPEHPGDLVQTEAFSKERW

[6] = target: Tyrosine-protein kinase ABL1 (Homo sapiens) (UniProt P00519)
Chain of Tyrosine-protein kinase ABL1 (Homo sapiens) (P00519 whole entry): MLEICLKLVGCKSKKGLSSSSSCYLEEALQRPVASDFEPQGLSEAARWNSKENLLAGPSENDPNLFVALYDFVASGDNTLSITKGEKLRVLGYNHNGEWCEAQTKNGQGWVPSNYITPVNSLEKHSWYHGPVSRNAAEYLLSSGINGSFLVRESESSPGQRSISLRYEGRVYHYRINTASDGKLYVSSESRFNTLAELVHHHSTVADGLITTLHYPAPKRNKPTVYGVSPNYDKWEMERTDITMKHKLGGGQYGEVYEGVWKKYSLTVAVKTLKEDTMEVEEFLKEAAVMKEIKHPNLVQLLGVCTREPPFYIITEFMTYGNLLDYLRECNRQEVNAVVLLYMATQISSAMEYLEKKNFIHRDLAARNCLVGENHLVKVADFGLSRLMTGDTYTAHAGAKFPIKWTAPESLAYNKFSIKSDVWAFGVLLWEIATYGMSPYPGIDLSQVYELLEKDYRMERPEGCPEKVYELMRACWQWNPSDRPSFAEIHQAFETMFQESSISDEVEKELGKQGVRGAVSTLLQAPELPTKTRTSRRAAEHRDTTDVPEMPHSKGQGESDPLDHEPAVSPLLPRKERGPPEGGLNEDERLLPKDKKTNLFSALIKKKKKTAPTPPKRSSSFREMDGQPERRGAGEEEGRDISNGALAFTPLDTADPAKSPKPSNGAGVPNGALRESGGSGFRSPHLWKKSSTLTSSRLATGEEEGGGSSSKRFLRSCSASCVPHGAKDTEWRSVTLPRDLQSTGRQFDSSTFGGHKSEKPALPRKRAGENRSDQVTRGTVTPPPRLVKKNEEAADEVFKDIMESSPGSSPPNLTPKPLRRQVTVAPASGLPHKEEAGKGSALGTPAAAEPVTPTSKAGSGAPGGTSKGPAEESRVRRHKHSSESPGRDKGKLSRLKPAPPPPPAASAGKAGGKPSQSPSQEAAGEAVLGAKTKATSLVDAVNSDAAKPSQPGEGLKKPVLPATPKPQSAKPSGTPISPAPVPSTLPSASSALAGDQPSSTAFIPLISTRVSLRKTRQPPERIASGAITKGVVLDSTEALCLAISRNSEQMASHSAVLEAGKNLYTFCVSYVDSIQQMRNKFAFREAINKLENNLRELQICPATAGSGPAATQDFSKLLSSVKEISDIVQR

[7] = target: 1-phosphatidylinositol 3-phosphate 5-kinase (Homo sapiens) (UniProt Q9Y2I7)
[8] = target: T3, Serine/threonine-protein kinase Sgk2 (Homo sapiens) (UniProt Q9HBY8)
T3 sequence (whole entry): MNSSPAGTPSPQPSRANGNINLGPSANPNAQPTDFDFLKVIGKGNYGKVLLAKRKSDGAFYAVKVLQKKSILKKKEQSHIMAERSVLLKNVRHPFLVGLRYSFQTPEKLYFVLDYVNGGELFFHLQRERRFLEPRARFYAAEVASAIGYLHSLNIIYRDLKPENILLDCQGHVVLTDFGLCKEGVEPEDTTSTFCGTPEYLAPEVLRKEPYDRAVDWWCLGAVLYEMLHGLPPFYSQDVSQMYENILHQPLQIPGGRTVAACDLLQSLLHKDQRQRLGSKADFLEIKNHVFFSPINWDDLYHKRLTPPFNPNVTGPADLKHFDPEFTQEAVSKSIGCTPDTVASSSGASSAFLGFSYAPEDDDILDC

[9] = target: Serine/threonine-protein kinase WNK4 (Homo sapiens) (UniProt Q96J92)
Chain of Serine/threonine-protein kinase WNK4 (Homo sapiens) (Q96J92 whole entry): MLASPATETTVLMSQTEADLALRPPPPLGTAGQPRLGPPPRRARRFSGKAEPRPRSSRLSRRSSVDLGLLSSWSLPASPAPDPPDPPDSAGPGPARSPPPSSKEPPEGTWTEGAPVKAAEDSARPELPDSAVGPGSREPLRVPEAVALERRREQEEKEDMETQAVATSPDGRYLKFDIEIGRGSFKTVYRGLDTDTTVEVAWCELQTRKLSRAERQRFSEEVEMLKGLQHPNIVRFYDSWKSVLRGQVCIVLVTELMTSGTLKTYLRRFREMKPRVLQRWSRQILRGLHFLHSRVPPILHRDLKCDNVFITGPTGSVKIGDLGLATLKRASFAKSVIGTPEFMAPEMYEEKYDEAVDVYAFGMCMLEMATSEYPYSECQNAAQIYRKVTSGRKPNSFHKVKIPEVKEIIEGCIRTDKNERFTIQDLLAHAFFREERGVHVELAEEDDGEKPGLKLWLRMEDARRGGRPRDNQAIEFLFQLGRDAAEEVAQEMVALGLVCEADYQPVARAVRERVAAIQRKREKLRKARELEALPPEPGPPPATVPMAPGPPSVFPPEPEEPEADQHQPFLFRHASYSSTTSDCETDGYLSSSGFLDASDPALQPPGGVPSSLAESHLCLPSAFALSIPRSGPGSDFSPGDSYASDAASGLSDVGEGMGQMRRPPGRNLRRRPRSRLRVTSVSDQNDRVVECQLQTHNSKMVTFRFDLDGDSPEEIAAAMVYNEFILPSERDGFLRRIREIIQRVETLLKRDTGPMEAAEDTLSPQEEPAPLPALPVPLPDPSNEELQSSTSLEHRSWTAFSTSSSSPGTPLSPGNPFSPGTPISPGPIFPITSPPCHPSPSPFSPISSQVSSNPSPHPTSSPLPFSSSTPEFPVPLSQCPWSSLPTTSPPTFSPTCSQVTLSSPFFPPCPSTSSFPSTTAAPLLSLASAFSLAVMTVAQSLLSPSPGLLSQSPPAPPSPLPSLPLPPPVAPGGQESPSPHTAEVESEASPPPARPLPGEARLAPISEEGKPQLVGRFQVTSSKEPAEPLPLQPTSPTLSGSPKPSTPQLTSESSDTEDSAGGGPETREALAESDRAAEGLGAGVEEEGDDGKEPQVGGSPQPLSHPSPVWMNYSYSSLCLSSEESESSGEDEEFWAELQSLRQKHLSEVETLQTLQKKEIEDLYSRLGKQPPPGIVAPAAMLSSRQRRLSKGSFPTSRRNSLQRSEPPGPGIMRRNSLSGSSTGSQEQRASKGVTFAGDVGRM

[10] = target: Protein kinase C eta type (Homo sapiens) (UniProt P24723)
Chain of Protein kinase C eta type (Homo sapiens) (P24723 whole entry): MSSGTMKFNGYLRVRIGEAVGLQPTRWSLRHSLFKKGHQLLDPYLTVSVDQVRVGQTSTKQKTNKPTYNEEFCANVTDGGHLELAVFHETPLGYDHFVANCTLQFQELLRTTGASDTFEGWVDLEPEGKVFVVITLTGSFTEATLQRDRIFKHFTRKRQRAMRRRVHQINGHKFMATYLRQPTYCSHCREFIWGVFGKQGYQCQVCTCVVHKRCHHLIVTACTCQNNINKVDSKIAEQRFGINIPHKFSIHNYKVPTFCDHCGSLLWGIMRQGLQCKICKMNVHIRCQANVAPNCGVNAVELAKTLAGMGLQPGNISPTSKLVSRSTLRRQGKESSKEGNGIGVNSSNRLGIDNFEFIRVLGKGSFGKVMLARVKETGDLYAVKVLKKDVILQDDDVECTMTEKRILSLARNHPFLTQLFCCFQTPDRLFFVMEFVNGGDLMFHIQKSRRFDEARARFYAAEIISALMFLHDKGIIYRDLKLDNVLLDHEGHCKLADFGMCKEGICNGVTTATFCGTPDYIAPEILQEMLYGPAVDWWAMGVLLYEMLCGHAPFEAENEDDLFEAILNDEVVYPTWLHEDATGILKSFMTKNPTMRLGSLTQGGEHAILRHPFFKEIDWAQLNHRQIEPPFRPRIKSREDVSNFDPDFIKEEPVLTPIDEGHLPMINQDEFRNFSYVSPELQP

[11] = Compound concentration 1000.0 nM
[12] = Compound concentration 100.0 nM

Measured: residual activity

C[C@@H]1CN(c2cc(-c3nn(C)c4ccc(OC5(C)CC5)cc34)ncn2)C[C@H](C)O1 [MLi-2-NC]
inactive: [1]; [11] 93% | [2]; [11] 100% | [3]; [11] 83% | [4]; [11] 90% | [5]; [11] 93% | [6]; [11] 85% | [7]; [11] 78% | [8]; [11] 58% | [9]; [11] 60% | [10]; [11] 100%

C[C@@H]1CN(c2cc(-c3n[nH]c4ccc(OC5(C)CC5)cc34)ncn2)C[C@H](C)O1 [MLi-2]
inactive: [1]; [12] 80% | [2]; [12] 95% | [3]; [12] 87% | [4]; [12] 100% | [5]; [12] 83% | [6]; [12] 87% | [7]; [12] 90% | [8]; [12] 84% | [9]; [12] 94% | [10]; [12] 92%
